Drawing on patent US20240158412A1 (Faxian Therapeutics, LLC, priority 2021, published 2024), this text covers IC50 for 25 compounds.
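Note: fluorescence intensity readout of USP7 enzymatic activity, reaction incubated 90 min at room temperature.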

For this experiment, the target named is USP7 (Homo sapiens, UniProt Q93009). Kind of experiment: biochemical.
Chain of USP7 (Q93009 whole entry): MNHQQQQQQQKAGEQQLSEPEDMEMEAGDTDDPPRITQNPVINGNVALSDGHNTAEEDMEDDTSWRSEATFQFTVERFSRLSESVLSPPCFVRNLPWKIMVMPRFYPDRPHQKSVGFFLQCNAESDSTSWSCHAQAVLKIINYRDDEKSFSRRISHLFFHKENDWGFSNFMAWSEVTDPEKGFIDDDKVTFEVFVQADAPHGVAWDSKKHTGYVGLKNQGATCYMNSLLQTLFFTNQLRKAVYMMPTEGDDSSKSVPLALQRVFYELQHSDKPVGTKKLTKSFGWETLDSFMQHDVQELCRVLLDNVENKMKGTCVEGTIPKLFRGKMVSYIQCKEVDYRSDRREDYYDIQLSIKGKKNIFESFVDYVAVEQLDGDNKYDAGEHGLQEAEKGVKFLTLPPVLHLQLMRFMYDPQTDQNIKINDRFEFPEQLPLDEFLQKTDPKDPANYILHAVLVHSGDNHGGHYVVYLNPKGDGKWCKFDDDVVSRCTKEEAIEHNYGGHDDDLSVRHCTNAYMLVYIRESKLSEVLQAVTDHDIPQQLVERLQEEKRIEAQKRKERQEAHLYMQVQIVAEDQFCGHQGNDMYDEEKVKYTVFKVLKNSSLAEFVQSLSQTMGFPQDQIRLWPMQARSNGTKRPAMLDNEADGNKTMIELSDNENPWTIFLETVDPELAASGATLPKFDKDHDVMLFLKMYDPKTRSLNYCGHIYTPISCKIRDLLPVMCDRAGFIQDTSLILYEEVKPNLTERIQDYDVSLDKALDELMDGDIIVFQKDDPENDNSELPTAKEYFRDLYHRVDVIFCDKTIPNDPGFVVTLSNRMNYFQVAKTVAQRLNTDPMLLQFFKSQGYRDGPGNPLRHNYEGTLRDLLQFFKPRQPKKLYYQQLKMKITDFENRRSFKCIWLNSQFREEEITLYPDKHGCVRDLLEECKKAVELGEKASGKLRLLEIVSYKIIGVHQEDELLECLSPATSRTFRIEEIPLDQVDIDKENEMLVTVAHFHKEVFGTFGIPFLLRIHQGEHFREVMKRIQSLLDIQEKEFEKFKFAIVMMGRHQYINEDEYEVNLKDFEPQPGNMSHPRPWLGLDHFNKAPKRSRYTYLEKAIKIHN
Procedure: Example A. Biochemical Assay of USP7 Inhibitor Potency (IC50)
Fluorescence intensity assay of USP7 activity in the presence USP7 inhibitors. Recombinant USP7 protein (catalogue number E-519) and the fluorescence substrate ubiquitin-rhodamine 110 (Rh110) (catalogue number U-555) were purchased from Boston Biochem (840 Memorial Drive, Cambridge, MA 02139). The reaction was carried out in buffer 20 mM HEPES, pH 7.3, 150 mM NaCl, 1 mM TCEP, 125 μg/mL BSA at room temperature in a black 384-well Microplate (Greiner, catalog number 781076).
Test compounds were dissolved in DMSO to make 50 mM stock solution. […] In wells of a black 384-well Microplate, 15 μl of 100 pM of USP7 enzyme was added to each well with pre-diluted compounds and incubated at room temperature for 30 minutes, followed by addition of 10 μl of ubiquitin-rhodamine 110 (Rh110) substrate to reach 160 nM final concentration. The reaction mixtures were incubated for additional 90 minutes at room temperature. The fluorescence signal of the digested substrate was measured on an EnVision microplate reader (PerkinElmer,), using excitation at 485 nm and emission at 535 nm. The IC50 values were calculated using XLfit software.
`N#Cc1cc2c(c(-c3ccnc4cc(CN5C(=O)CCC5=O)sc34)c1)N([C@H]1CCNC1)CCC2` [Example 82, (S)-8-(2-((2,5-dioxopyrrolidin-1-yl)methyl)thieno[3,2-b]pyridin-7-yl)-1-(pyrrolidin-3-yl)-1,2,3,4-tetrahydroquinoline-6-carbonitrile]: the IC50 was less than 10 nM.
In turn, `N#Cc1cc2c(c(-c3ccnc4cc(Cn5c(=O)ccn(CC(F)(F)F)c5=O)sc34)c1)N([C@H]1CCNC1)CCC2` [Example 83, (S)-8-(2-((2,6-dioxo-3-(2,2,2-trifluoroethyl)-2,3-dihydropyrimidin-1(6H)-yl)methyl)thieno[3,2-b]pyridin-7-yl)-1-(pyrrolidin-3-yl)-1,2,3,4-tetrahydroquinoline-6-carbonitrile] registered an IC50 of less than 10 nM.
For `CCN1CC[C@H](N2CCCc3cc(C#N)cc(-c4ccnc5cc(Cn6c(=O)ccn(CC(F)(F)F)c6=O)sc45)c32)C1` [Example 84, (S)-8-(2-((2,6-dioxo-3-(2,2,2-trifluoroethyl)-2,3-dihydropyrimidin-1(6H)-yl)methyl)thieno[3,2-b]pyridin-7-yl)-1-(1-ethylpyrrolidin-3-yl)-1,2,3,4-tetrahydroquinoline-6-carbonitrile] the value was less than 10 nM.
`CO[C@H]1C[C@@H](N2CC[C@H](N3CCCc4cc(C#N)cc(-c5ccnc6cc(Cn7c(=O)ccn(CC(F)(F)F)c7=O)sc56)c43)C2)C1` [Example 85, 8-(2-((2,6-dioxo-3-(2,2,2-trifluoroethyl)-2,3-dihydropyrimidin-1(6H)-yl)methyl)thieno[3,2-b]pyridin-7-yl)-1-((S)-1-((1s,3R)-3-methoxycyclobutyl)pyrrolidin-3-yl)-1,2,3,4-tetrahydroquinoline-6-carbonitrile] gave an IC50 of 10 to 100 nM.
Turning to `N#Cc1cc2c(c(-c3ccnc4cc(Cn5c(=O)ccn(CC(F)(F)F)c5=O)sc34)c1)N([C@H]1CCN(C3CCC3)C1)CCC2` [Example 86, (S)-1-(1-cyclobutylpyrrolidin-3-yl)-8-(2-((2,6-dioxo-3-(2,2,2-trifluoroethyl)-2,3-dihydropyrimidin-1(6H)-yl)methyl)thieno[3,2-b]pyridin-7-yl)-1,2,3,4-tetrahydroquinoline-6-carbonitrile], the IC50 was in the range of 10 to 100 nM.
For `Cn1ccc(=O)n(Cc2cc3nccc(-c4cc(C#N)cc5c4N([C@H]4CCNC4)CCC5)c3s2)c1=O` [Example 87, (S)-8-(2-((3-methyl-2,6-dioxo-2,3-dihydropyrimidin-1(6H)-yl)methyl)thieno[3,2-b]pyridin-7-yl)-1-(pyrrolidin-3-yl)-1,2,3,4-tetrahydroquinoline-6-carbonitrile] the value was less than 10 nM; for `N#Cc1cc2c(c(-c3ccnc4cc(Cn5c(=O)ccn(C6CC6)c5=O)sc34)c1)N([C@H]1CCNC1)CCC2` [Example 88, (S)-8-(2-((3-cyclopropyl-2,6-dioxo-2,3-dihydropyrimidin-1(6H)-yl)methyl)thieno[3,2-b]pyridin-7-yl)-1-(pyrrolidin-3-yl)-1,2,3,4-tetrahydroquinoline-6-carbonitrile], less than 10 nM.
As to `CC(F)(F)Cn1ccc(=O)n(Cc2cc3nccc(-c4cc(C#N)cc5c4N([C@H]4CCNC4)CCC5)c3s2)c1=O` [Example 89, (S)-8-(2-((3-(2,2-difluoropropyl)-2,6-dioxo-2,3-dihydropyrimidin-1(6H)-yl)methyl)thieno[3,2-b]pyridin-7-yl)-1-(pyrrolidin-3-yl)-1,2,3,4-tetrahydroquinoline-6-carbonitrile], the IC50 was less than 10 nM.
For `O=c1ccn(CC(F)(F)F)c(=O)n1Cc1cc2ncnc(-c3cc(Cl)cc4c3N([C@H]3CCNC3)CCC4)c2s1` [Example 91, (S)-3-((4-(6-chloro-1-(pyrrolidin-3-yl)-1,2,3,4-tetrahydroquinolin-8-yl)thieno[3,2-d]pyrimidin-6-yl)methyl)-1-(2,2,2-trifluoroethyl)pyrimidine-2,4(1H,3H)-dione] the value was less than 10 nM; for `N#Cc1cc2c(c(-c3ncnc4cc(Cn5c(=O)ccn(CC(F)(F)F)c5=O)sc34)c1)N([C@H]1CCNC1)CCC2` [Example 92, (S)-8-(6-((2,6-dioxo-3-(2,2,2-trifluoroethyl)-2,3-dihydropyrimidin-1(6H)-yl)methyl)thieno[3,2-d]pyrimidin-4-yl)-1-(pyrrolidin-3-yl)-1,2,3,4-tetrahydroquinoline-6-carbonitrile], less than 10 nM; for `N#Cc1cc2c(c(-c3ncnc4cc(Cn5c(=O)ccn(CC(F)(F)F)c5=O)sc34)c1)N([C@@H]1CCNC1)CCC2` [Example 93, (R)-8-(6-((2,6-dioxo-3-(2,2,2-trifluoroethyl)-2,3-dihydropyrimidin-1(6H)-yl)methyl)thieno[3,2-d]pyrimidin-4-yl)-1-(pyrrolidin-3-yl)-1,2,3,4-tetrahydroquinoline-6-carbonitrile], less than 10 nM.
Compound `COCCn1ccc(=O)n(Cc2cc3nccc(-c4cc(Cl)cc5c4N([C@@H]4CCNC4)CCC5)c3s2)c1=O` [Example 100, (R)-3-((7-(6-chloro-1-(pyrrolidin-3-yl)-1,2,3,4-tetrahydroquinolin-8-yl)thieno[3,2-b]pyridin-2-yl)methyl)-1-(2-methoxyethyl)pyrimidine-2,4(1H,3H)-dione] yielded an IC50 of less than 10 nM.
For `O=c1ccn(CC(F)F)c(=O)n1Cc1cc2nccc(-c3cc(Cl)cc4c3N([C@H]3CCNC3)CCC4)c2s1` [Example 101, (S)-3-((7-(6-chloro-1-(pyrrolidin-3-yl)-1,2,3,4-tetrahydroquinolin-8-yl)thieno[3,2-b]pyridin-2-yl)methyl)-1-(2,2-difluoroethyl)pyrimidine-2,4(1H,3H)-dione] the value was less than 10 nM; for `CC(C)CN1CC[C@H](N2CCCc3cc(Cl)cc(-c4ccnc5cc(CN6C(=O)CCC6=O)sc45)c32)C1` [Example 102, (S)-1-((7-(6-chloro-1-(1-isobutylpyrrolidin-3-yl)-1,2,3,4-tetrahydroquinolin-8-yl)thieno[3,2-b]pyridin-2-yl)methyl)pyrrolidine-2,5-dione], 10 to 100 nM.
Compound `CC(F)(F)Cn1ccc(=O)n(Cc2cc3nccc(-c4cc(Cl)cc5c4N([C@H]4CCNC4)CCC5)c3s2)c1=O` [Example 103, (S)-3-((7-(6-chloro-1-(pyrrolidin-3-yl)-1,2,3,4-tetrahydroquinolin-8-yl)thieno[3,2-b]pyridin-2-yl)methyl)-1-(2,2-difluoropropyl)pyrimidine-2,4(1H,3H)-dione] returned an IC50 of less than 10 nM.
In the case of `CC(F)(F)CCn1ccc(=O)n(Cc2cc3nccc(-c4cc(Cl)cc5c4N([C@H]4CCNC4)CCC5)c3s2)c1=O` [Example 104, (S)-3-((7-(6-chloro-1-(pyrrolidin-3-yl)-1,2,3,4-tetrahydroquinolin-8-yl)thieno[3,2-b]pyridin-2-yl)methyl)-1-(3,3-difluorobutyl)pyrimidine-2,4(1H,3H)-dione] it was less than 10 nM; in that of `O=c1cc(CC(F)F)cnn1Cc1cc2nccc(-c3cc(Cl)cc4c3N([C@H]3CCNC3)CCC4)c2s1` [Example 105, (S)-2-((7-(6-chloro-1-(pyrrolidin-3-yl)-1,2,3,4-tetrahydroquinolin-8-yl)thieno[3,2-b]pyridin-2-yl)methyl)-5-(2,2-difluoroethyl)pyridazin-3(2H)-one], less than 10 nM.
Compound `O=c1cc2n(c(=O)n1Cc1cc3nccc(-c4cc(Cl)cc5c4N([C@H]4CCNC4)CCC5)c3s1)CCC2` [Example 106, (S)-2-((7-(6-chloro-1-(pyrrolidin-3-yl)-1,2,3,4-tetrahydroquinolin-8-yl)thieno[3,2-b]pyridin-2-yl)methyl)-6,7-dihydropyrrolo[1,2-c]pyrimidine-1,3(2H,5H)-dione] had an IC50 of less than 10 nM.
Regarding `O=C1CCC(=O)N1Cc1cc2ncc(F)c(-c3cc(Cl)cc4c3N([C@H]3CCNC3)CCC4)c2s1` [Example 109, 1-((7-(6-chloro-1-((S)-pyrrolidin-3-yl)-1,2,3,4-tetrahydroquinolin-8-yl)-6-fluorothieno[3,2-b]pyridin-2-yl)methyl)pyrrolidine-2,5-dione], the 50% inhibitory concentration (IC50) is less than 10 nM.
On to `O=C1CCC(=O)N1C1(c2cc3nccc(-c4cc(Cl)cc5c4N([C@H]4CCNC4)CCC5)c3s2)CC1` [Example 110], for which the IC50 lay within 101 to 1000 nM.
In the case of `O=c1ccn(CC(F)(F)F)c(=O)n1Cc1cc2nccc(-c3cc(Cl)cc4c3N([C@H]3CCNC3)C[C@H]3C[C@@H]43)c2s1` [Example 114, 3-((7-((1aS,7bR)-6-chloro-3-((S)-pyrrolidin-3-yl)-1a,2,3,7b-tetrahydro-1H-cyclopropa[c]quinolin-4-yl)thieno[3,2-b]pyridin-2-yl)methyl)-1-(2,2,2-trifluoroethyl)pyrimidine-2,4(1H,3H)-dione] it was less than 10 nM; in that of `Cc1cc(-c2cc(Cl)cc3c2N([C@H]2CCNC2)CCC3)c2sc(CN3C(=O)CCC3=O)cc2n1` [Example 116, (S)-1-((7-(6-chloro-1-(pyrrolidin-3-yl)-1,2,3,4-tetrahydroquinolin-8-yl)-5-methylthieno[3,2-b]pyridin-2-yl)methyl)pyrrolidine-2,5-dione], 101 to 1000 nM.
In the case of `N#Cc1cc(-c2ccnc3cc(Cn4c(=O)ccn(CC(F)F)c4=O)sc23)c2c(c1)[C@H]1C[C@H]1CN2[C@@H]1CCNC1` [Example 117a, (1aR,7bS)-4-(2-((3-(2,2-difluoroethyl)-2,6-dioxo-3,6-dihydropyrimidin-1(2H)-yl)methyl)thieno[3,2-b]pyridin-7-yl)-3-((R)-pyrrolidin-3-yl)-1a,2,3,7b-tetrahydro-1H-cyclopropa[c]quinoline-6-carbonitrile] it was 101 to 1000 nM.
For the compound `N#Cc1cc(-c2ccnc3cc(Cn4c(=O)ccn(CC(F)F)c4=O)sc23)c2c(c1)[C@@H]1C[C@@H]1CN2[C@@H]1CCNC1` [Example 117b, (1aS,7bR)-4-(2-((3-(2,2-difluoroethyl)-2,6-dioxo-2,3-dihydropyrimidin-1(6H)-yl)methyl)thieno[3,2-b]pyridin-7-yl)-3-((R)-pyrrolidin-3-yl)-1a,2,3,7b-tetrahydro-1H-cyclopropa[c]quinoline-6-carbonitrile], the IC50 lay in the range of 10 to 100 nM.
The compound `N#Cc1cc(-c2ccnc3cc(Cn4c(=O)ccn(CC(F)F)c4=O)sc23)c2c(c1)[C@H]1C[C@H]1CN2[C@H]1CCNC1` [Example 117c, (1aR,7bS)-4-(2-((3-(2,2-difluoroethyl)-2,6-dioxo-3,6-dihydropyrimidin-1(2H)-yl)methyl)thieno[3,2-b]pyridin-7-yl)-3-((S)-pyrrolidin-3-yl)-1a,2,3,7b-tetrahydro-1H-cyclopropa[c]quinoline-6-carbonitrile] registered an IC50 of 10 to 100 nM.
